Structures can show the parent of a compound that is named as a salt.
How the values were obtained:
Conditions in all cases: sulfur source concentration 200 µM; S. cerevisiae S288C/BY sul1Δ sul2Δ soa1Δ with transporter ortholog inserted at SOA1 locus; sulfur-free B medium, 4% glucose, pH 6.5, sole sulfur source
[1] = system: Ogataea parapolymorpha_XP_013935289; assay: maximal growth rate with compound as sole sulfur source (OD600 per h); higher = better growth / uptake of the sulfur source
Description: (§1)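 S. cerevisiae sul1Δ sul2Δ soa1Δ strains expressing 20 fungal SOA1 orthologs (or no transporter, 'soa1 del') were grown in liquid sulfur-free B medium, 4% glucose, pH 6.5 (7 mM K2HPO4). The strains were sulfur-starved for 3 days beforehand. Each sulfur compound was the sole sulfur source at 200 µM (sulfate also at 40 mM). OD600 curves of duplicate cultures were averaged and fitted (logistic / Richards, GroFit) to give maximal growth rate, maximal density and lag phase; temperature not stated.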

[2] = system: Aspergillus nidulans_XP_661733; assay: as above
Description: as §1

[3] = system: Aspergillus nidulans_XP_661711; assay: as above
Description: as §1

[4] = system: Saccharomyces cerevisiae_SOA1; assay: as above
Description: as §1

[5] = system: Metarhizium robertsii_XP_007822519; assay: as above
Description: as §1

[6] = system: Aspergillus nidulans_XP_660670; assay: as above
Description: as §1

[7] = system: Fusarium oxysporum_ENH65823; assay: as above
Description: as §1

[8] = system: Metarhizium robertsii_XP_007823832; assay: as above
Description: as §1

[9] = system: Aspergillus nidulans_XP_681611; assay: as above
Description: as §1

[10] = system: Saccharomyces eubayanus_SOA2; assay: as above
Description: as §1

[11] = system: Aspergillus nidulans_CBF80346; assay: as above
Description: as §1

[12] = system: Aspergillus nidulans_XP_660563; assay: as above
Description: as §1

[13] = system: Aspergillus nidulans (IAM 2006)_astA; assay: as above
Description: as §1

[14] = system: Ogataea parapolymorpha_XP_013936897; assay: as above
Description: as §1

[15] = system: Metarhizium robertsii_XP_007821441; assay: as above
Description: as §1

[16] = system: Aspergillus nidulans_CBF74694; assay: as above
Description: as §1

[17] = system: Ogataea parapolymorpha_XP_013932458; assay: as above
Description: as §1

[18] = system: Saccharomyces eubayanus_SOA1; assay: as above
Description: as §1

[19] = system: Saccharomyces uvarum_SOA1; assay: as above
Description: as §1

[20] = system: Saccharomyces uvarum_SOA2; assay: as above
Description: as §1

soa1 del [21] = assay: as above
Description: as §1

[22] = system: Ogataea parapolymorpha_XP_013935289; assay: lag phase before growth; higher = slower start of growth
Description: as §1

[23] = system: Saccharomyces cerevisiae_SOA1; assay: as above
Description: as §1

[24] = system: Metarhizium robertsii_XP_007823832; assay: as above
Description: as §1

[25] = system: Aspergillus nidulans (IAM 2006)_astA; assay: as above
Description: as §1

[26] = system: Ogataea parapolymorpha_XP_013935289; assay: maximal culture density with compound as sole sulfur source (OD600); higher = better growth
Description: as §1

[27] = system: Aspergillus nidulans_XP_661733; assay: as above
Description: as §1

[28] = system: Aspergillus nidulans_XP_661711; assay: as above
Description: as §1

[29] = system: Saccharomyces cerevisiae_SOA1; assay: as above
Description: as §1

[30] = system: Metarhizium robertsii_XP_007822519; assay: as above
Description: as §1

[31] = system: Aspergillus nidulans_XP_660670; assay: as above
Description: as §1

[32] = system: Fusarium oxysporum_ENH65823; assay: as above
Description: as §1

[33] = system: Metarhizium robertsii_XP_007823832; assay: as above
Description: as §1

[34] = system: Aspergillus nidulans_XP_681611; assay: as above
Description: as §1

[35] = system: Saccharomyces eubayanus_SOA2; assay: as above
Description: as §1

[36] = system: Aspergillus nidulans_CBF80346; assay: as above
Description: as §1

[37] = system: Aspergillus nidulans_XP_660563; assay: as above
Description: as §1

[38] = system: Aspergillus nidulans (IAM 2006)_astA; assay: as above
Description: as §1

[39] = system: Ogataea parapolymorpha_XP_013936897; assay: as above
Description: as §1

[40] = system: Metarhizium robertsii_XP_007821441; assay: as above
Description: as §1

[41] = system: Aspergillus nidulans_CBF74694; assay: as above
Description: as §1

[42] = system: Ogataea parapolymorpha_XP_013932458; assay: as above
Description: as §1

[43] = system: Saccharomyces eubayanus_SOA1; assay: as above
Description: as §1

[44] = system: Saccharomyces uvarum_SOA1; assay: as above
Description: as §1

[45] = system: Saccharomyces uvarum_SOA2; assay: as above
Description: as §1

soa1 del [46] = assay: as above
Description: as §1

[47] = system: Aspergillus nidulans_XP_661733; assay: lag phase before growth; higher = slower start of growth
Description: as §1

[48] = system: Saccharomyces uvarum_SOA2; assay: as above
Description: as §1

C[N+](C)(C)CCOS(=O)(=O)[O-] [Choline sulfate]
maximal growth rate [1]: 0.072
maximal growth rate [2]: 0.00364
maximal growth rate [3]: 0.00345
maximal growth rate [4]: 0.0576
maximal growth rate [5]: 0.00309
maximal growth rate [6]: 0.00346
maximal growth rate [7]: 0.00381
maximal growth rate [8]: 0.0809
maximal growth rate [9]: 0.0057
maximal growth rate [10]: 0.00319
maximal growth rate [11]: 0.00384
maximal growth rate [12]: 0.0061
maximal growth rate [13]: 0.0987
maximal growth rate [14]: 0.00441
maximal growth rate [15]: 0.00312
maximal growth rate [16]: 0.00254
maximal growth rate [17]: 0.00365
maximal growth rate [18]: 0.0058
maximal growth rate [19]: 0.00649
maximal growth rate [20]: 0.00318
maximal growth rate (soa1 del [21]): 0.00393
lag phase before growth [22]: 19.4 h
lag phase before growth [23]: 28.7 h
lag phase before growth [24]: 8.32 h
lag phase before growth [25]: 6.39 h
maximal culture density [26]: 1.6
maximal culture density [27]: 0.257
maximal culture density [28]: 0.282
maximal culture density [29]: 1.59
maximal culture density [30]: 0.238
maximal culture density [31]: 0.282
maximal culture density [32]: 0.284
maximal culture density [33]: 1.61
maximal culture density [34]: 0.352
maximal culture density [35]: 0.202
maximal culture density [36]: 0.245
maximal culture density [37]: 0.381
maximal culture density [38]: 1.61
maximal culture density [39]: 0.335
maximal culture density [40]: 0.25
maximal culture density [41]: 0.215
maximal culture density [42]: 0.288
maximal culture density [43]: 0.49
maximal culture density [44]: 0.69
maximal culture density [45]: 0.237
maximal culture density (soa1 del [46]): 0.22

O=C(O)CS(=O)(=O)O [Sulfoacetic acid]
maximal growth rate [1]: 0.0296
maximal growth rate [2]: 0.0174
maximal growth rate [3]: 0.00399
maximal growth rate [4]: 0.0325
maximal growth rate [5]: 0.00308
maximal growth rate [6]: 0.00401
maximal growth rate [7]: 0.00684
maximal growth rate [8]: 0.0177
maximal growth rate [9]: 0.00636
maximal growth rate [10]: 0.00305
maximal growth rate [11]: 0.00462
maximal growth rate [12]: 0.00621
maximal growth rate [13]: 0.0131
maximal growth rate [14]: 0.00474
maximal growth rate [15]: 0.00346
maximal growth rate [16]: 0.00286
maximal growth rate [17]: 0.00439
maximal growth rate [18]: 0.0033
maximal growth rate [19]: 0.00282
maximal growth rate [20]: 0.0314
maximal growth rate (soa1 del [21]): 0.00385
lag phase before growth [22]: 8.28 h
lag phase before growth [47]: 26.9 h
lag phase before growth [23]: 9.42 h
lag phase before growth [48]: 38.2 h
maximal culture density [26]: 1.33
maximal culture density [27]: 0.777
maximal culture density [28]: 0.223
maximal culture density [29]: 1.28
maximal culture density [30]: 0.282
maximal culture density [31]: 0.222
maximal culture density [33]: 0.712
maximal culture density [34]: 0.3
maximal culture density [35]: 0.211
maximal culture density [36]: 0.223
maximal culture density [37]: 0.308
maximal culture density [38]: 0.731
maximal culture density [39]: 0.275
maximal culture density [40]: 0.225
maximal culture density [41]: 0.183
maximal culture density [42]: 0.251
maximal culture density [43]: 0.274
maximal culture density [44]: 0.391
maximal culture density [45]: 1.01
maximal culture density (soa1 del [46]): 0.216
